Experimental data: US11357779B2 (G1 Therapeutics, Inc., priority 2018, dated 2022)
Where two headings read alike, the source gives them in different places.

Assay: Plasma concentration versus time of Compound I and metabolite Compound III in patients dosed QD or BID with Form B of Compound II plus fulvestrant
Assay type: in vivo, human
Details: for Trough Compound I Concentration, Max / Trough Compound I Concentration, Mean / Trough Compound I Concentration, Median / Trough Compound I Concentration, Min / Compound I Concentration, Max / Compound I Concentration, Median: Cohort 8, 200 mg BID of Form B; for concentration at 0 h / concentration at 1 h / concentration at 2 h / concentration at 3 h / concentration at 4 h / concentration at 6 h / concentration at 8 h / concentration at 10 h / concentration at 12 h / concentration at 8 day / concentration at 15 day / concentration at 22 day: human, plasma, oral, 100 mg; for concentration at 1 h: Day 1, 1.0 h; for concentration at 2 h: Day 1, 2.0 h; for concentration at 3 h: Day 1, 3.0 h; for concentration at 4 h: Day 1, 4.0 h; for concentration at 6 h: Day 1, 6.0 h; for concentration at 8 h: Day 1, 8.0 h; for concentration at 10 h: Day 1, 10.0 h; for concentration at 12 h: Day 1, 12.0 h
From the text: Patients were enrolled into 1 of 2 parallel, independently operating, dose-escalation dosing cohorts with Form B of Compound II administered continuously either once daily (QD) or twice daily (BID) with food with fixed-dose fulvestrant (intramuscularly every 14 days for the first three injections and then every 28 days). Pre- or perimenopausal patients also received goserelin for the duration of study treatment. A […] agonist was started at least 28 days before the first dose of Form B, and those patients who were taking another LHRH agonist were switched to goserelin on Day 1. Patients were split into […] cohorts providing once a day (QD) dosing of 200 mg, 300 mg, 400 mg, 500 mg, or 650 mg of Form B, or twice a day (BID) dosing of 100 mg, 150 mg, or 200 mg of Form B. The second dose in BID cohorts was not administered in the evening until at least 12 hours after the initial morning dose of Form B. The dosing cohorts for Form B of Compound II are provided in Table 1.
Blood samples were collected at the following time points relative to the morning dose of Form B at Day 1 and at Day 29: pre-dose (0 hour) and 1, 2, 3, 4, 6, 8, 10, 12 (prior to the evening dose in the BID cohorts), and 24 (prior to the next day's morning dose) hours after dosing. A 5-minute time window was allowed for samples collected between the predose and 3 hours after Form B dosing. A 15-minute window was allowed for samples collected between 4 to 12 hours after Form B dosing. A 1-hour window was allowed for the sample collected 24 hours after Form B dosing. Blood samples for Compound I PK trough levels were collected pre-dose at Day 8, Day 15, and Day 22 prior to the morning administration of Compound I. Plasma concentrations of Compound I and its metabolite, Compound III, were measured using validated methods.
Analysis of plasma concentration versus time data for calculation of standard pharmacokinetic (PK) parameters following oral administration was conducted using Phoenix WinNonlin version 6.3 using actual blood sampling times.

[1] = 100 mg BID of Form B, Mean, read-out: Compound I Concentration
[2] = 100 mg BID of Form B, Median, read-out: Compound I Concentration

CC(C)N1CCN(c2ccc(Nc3ncc4cc5n(c4n3)C3(CCCCC3)CNC5=O)nc2)CC1 [Compound I, 2′-((5-(4-isopropylpiperazin-1-yl)pyridin-2-yl)amino)-7′,8′-dihydro-6′H-spiro[cyclohexane-1,9′-pyrazino[1′,2′:1,5]pyrrolo[2,3-d]pyrimidin]-6′-one]
Trough Compound I Concentration, Max (Day 8): 19.7 ng/mL | Trough Compound I Concentration, Mean (Day 8): 9.41 ng/mL | Trough Compound I Concentration, Median (Day 8): 6.82 ng/mL | Trough Compound I Concentration, Min (Day 8): 1.72 ng/mL | Trough Compound I Concentration, Max (Day 15): 16.3 ng/mL | Trough Compound I Concentration, Mean (Day 15): 11.0 ng/mL | Trough Compound I Concentration, Median (Day 15): 11.0 ng/mL | Trough Compound I Concentration, Min (Day 15): 5.71 ng/mL | Trough Compound I Concentration, Max (Day 22): 15.5 ng/mL | Trough Compound I Concentration, Mean (Day 22): 7.11 ng/mL | Trough Compound I Concentration, Median (Day 22): 5.83 ng/mL | Trough Compound I Concentration, Min (Day 22): 0.00 ng/mL | Compound I Concentration, Max (Day 29, 0.0 h): 17.2 ng/mL | Compound I Concentration, Median (Day 29, 0.0 h): 6.54 ng/mL | Compound I Concentration, Max (Day 29, 1.0 h): 13.3 ng/mL | Compound I Concentration, Median (Day 29, 1.0 h): 9.29 ng/mL | Compound I Concentration, Max (Day 29, 2.0 h): 17.0 ng/mL | Compound I Concentration, Median (Day 29, 2.0 h): 13.3 ng/mL | Compound I Concentration, Max (Day 29, 3.0 h): 22.5 ng/mL | Compound I Concentration, Median (Day 29, 3.0 h): 15.6 ng/mL | Compound I Concentration, Max (Day 29, 4.0 h): 30.5 ng/mL | Compound I Concentration, Median (Day 29, 4.0 h): 25.1 ng/mL | Compound I Concentration, Median (Day 29, 6.0 h): 21.1 ng/mL | Compound I Concentration, Median (Day 29, 8.0 h): 14.8 ng/mL | Compound I Concentration, Median (Day 29, 10.0 h): 11.7 ng/mL | Compound I Concentration, Median (Day 29, 12.0 h): 12.4 ng/mL | concentration at 0 h (100 mg BID of Form B, Day 1, 0.0 h, Mean, read-out: Compound I Concentration): 0 ng/mL | concentration at 0 h (100 mg BID of Form B, Day 1, 0.0 h, Median, read-out: Compound I Concentration): 0 ng/mL | concentration at 1 h [1]: 2.8 ng/mL | concentration at 1 h [2]: 2.6 ng/mL | concentration at 2 h [1]: 6.21 ng/mL | concentration at 2 h [2]: 5.71 ng/mL | concentration at 3 h [1]: 8.72 ng/mL | concentration at 3 h [2]: 8.09 ng/mL | concentration at 4 h [1]: 8.98 ng/mL | concentration at 4 h [2]: 7.47 ng/mL | concentration at 6 h [1]: 5.7 ng/mL | concentration at 6 h [2]: 5.12 ng/mL | concentration at 8 h [1]: 4.07 ng/mL | concentration at 8 h [2]: 3.71 ng/mL | concentration at 10 h [1]: 3.29 ng/mL | concentration at 10 h [2]: 2.91 ng/mL | concentration at 12 h [1]: 2.93 ng/mL | concentration at 12 h [2]: 2.2 ng/mL | concentration at 8 day (Cohort 6, 100 mg BID of Form B, Day 8, read-out: Trough Compound I Concentration, Max): 23.7 ng/mL | concentration at 8 day (Cohort 6, 100 mg BID of Form B, Day 8, read-out: Trough Compound I Concentration, Mean): 8.78 ng/mL | concentration at 8 day (Cohort 6, 100 mg BID of Form B, Day 8, read-out: Trough Compound I Concentration, Median): 5.49 ng/mL | concentration at 8 day (Cohort 6, 100 mg BID of Form B, Day 8, read-out: Trough Compound I Concentration, Min): 3.29 ng/mL | concentration at 15 day (Cohort 6, 100 mg BID of Form B, Day 15, read-out: Trough Compound I Concentration, Max): 22 ng/mL | concentration at 15 day (Cohort 6, 100 mg BID of Form B, Day 15, read-out: Trough Compound I Concentration, Mean): 8.92 ng/mL | concentration at 15 day (Cohort 6, 100 mg BID of Form B, Day 15, read-out: Trough Compound I Concentration, Median): 6.34 ng/mL | concentration at 15 day (Cohort 6, 100 mg BID of Form B, Day 15, read-out: Trough Compound I Concentration, Min): 3.31 ng/mL | concentration at 22 day (Cohort 6, 100 mg BID of Form B, Day 22, read-out: Trough Compound I Concentration, Max): 10.9 ng/mL | concentration at 22 day (Cohort 6, 100 mg BID of Form B, Day 22, read-out: Trough Compound I Concentration, Mean): 5.7 ng/mL | concentration at 22 day (Cohort 6, 100 mg BID of Form B, Day 22, read-out: Trough Compound I Concentration, Median): 4.42 ng/mL | concentration at 22 day (Cohort 6, 100 mg BID of Form B, Day 22, read-out: Trough Compound I Concentration, Min): 2.34 ng/mL | concentration at 0 h (Cohort 6, 100 mg BID of Form B, Day 29, 0.0 h, read-out: Compound I Concentration, Max): 9.2 ng/mL | concentration at 0 h (Cohort 6, 100 mg BID of Form B, Day 29, 0.0 h, read-out: Compound I Concentration, Mean): 4.35 ng/mL
